Reference: patent publication US11648289B2, “Antibacterial method” (priority 2016, dated 2023)
No end group written: not given here.

Experiments:
[1] = tested on: E. faecalis (2); conditions: E. faecalis (2), Table 6B
Method: (§1) All the strains (see below) used in minimal inhibitory concentration (MIC) assays (Ovchinnikov et al., 2017, Front Microbiol., 8, p774, doi:10.3389/fmicb.2017.00774) were grown in BHI medium (Oxoid) at 30° C. without shaking. The tested strains were obtained from the LMG collection. […] NisinZ and micrococcin P1 were purified from source. Synthesized peptides were solubilized to concentrations of 10.0-0.1 mg/ml in 0.1% (vol/vol) trifluoroacetic acid and stored at −20° C. until use. Garvicin KS is made up of 3 peptides:
(§2) Bacteriocin activity was determined using a microtitre plate assay. The plates were incubated at 30° C. for 8 h and the growth was measured spectrophotometrically at 600 nm (A600) with 15 min intervals using SPECTROstarNano (BMG LABTECH, Germany). The MIC was defined as the bacteriocin concentration that inhibited the growth of the indicator strain by at least 50% in 200 μl culture (i.e., 50% of the turbidity of the control culture without bacteriocin).

[2] = tested on: E. faecium (2); conditions: E. faecium (2), Table 6B
Method: as §1, §2

[3] = tested on: E. hirae (4); conditions: E. hirae (4), Table 6B
Method: as §1, §2

[4] = tested on: Listeria spp. (3); conditions: Listeria spp. (3), Table 6B
Method: as §1, §2

[5] = tested on: E. faecium and E. faecalis; conditions: 20 μl of 1 mg/ml bacteriocin on soft agar, overnight, 30° C. vs 45° C.
[6] = tested on: SP 4012; assay: organism not typed; conditions: SP 4012 (S. pseudointermedius)
Method: as §1, §2

[7] = tested on: SP 4013; assay: organism not typed; conditions: SP 4013 (S. pseudointermedius)
Method: as §1, §2

[8] = tested on: SP 4014; assay: organism not typed; conditions: SP 4014 (S. pseudointermedius)
Method: as §1, §2

[9] = tested on: KAVA; assay: MIC microtitre plate assay, pathogenic isolates; type: cell-based; conditions: KAVA
Method: The tested strains were obtained from the LMG collection. […] NisinZ and micrococcin P1 were purified from source. […] Garvicin KS is made up of 3 peptides:
Bacteriocin activity was determined using a microtitre plate assay. The plates were incubated at 30° C. for 8 h and the growth was measured spectrophotometrically at 600 nm (A600) with 15 min intervals using SPECTROstarNano (BMG LABTECH, Germany).

[10] = tested on: E. faecalis LMGT3358 resistant mutants
Procedure, shortened: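 Indicator strains were grown in BHI medium at 30° C without shaking and challenged with bacteriocin in a microtiter plate assay. MIC is the lowest bacteriocin concentration that inhibits growth by at least 50%, judged as 50% of the turbidity of the bacteriocin-free control culture.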

Sequence | MIC [1] [µg/mL] | MIC [2] [µg/mL] | MIC [3] [µg/mL] | MIC [4] [µg/mL] | appearance of resistant mutants at growth temperature [5] | MIC [6] [µg/mL] | MIC [7] [µg/mL] | MIC [8] [µg/mL] | MIC [9] [µg/mL] | resistance of lower resistance (LR) colonies compared to the WT ([10]; five LR colonies of E. faecalis) | resistance of highly resistant (HR) colonies compared to the WT ([10]; seven HR colonies of E. faecalis)
MKFKFNPTGTIVKKLTQYEIAWFKNKHGYYPWEIPRC [EntK1] | >25 | <0.02 to 0.4 | 0.2 to 0.8 | >50 | only appeared at 30 °C but not at 45 °C |  |  |  |  |  | 
MLAKIKAMIKKFPNPYTLAAKLTTYEINWYKQQYGRYPWERPVA [EntEJ97] | 3.1 | 0.8 to 1.6 | 0.4 to 1.6 | 12.5 to 25 | only appeared at 30 °C but not at 45 °C | 12.5 | 12.5 | 12.5 | >50 | 16-32 times | at least 500 times
